Assay results reported in patent EP0248999A2, “Uses of enprostil-type prostaglandins in regulating fat and carbohydrate metabolism” (SYNTEX (U.S.A.) INC., priority 1986, dated 1987).
Read-outs that look alike come from different tables or passages of the source.

Key:
serum cholesterol = assay: Example 1: oral enprostil, serum cholesterol in patients with high cholesterol baseline; type: in vivo, human; settings: five weeks
Experimental: (§1) The following non-limiting examples will further clarify the nature of this invention. In these examples, serum lipids and cholesterol were measured by standard methods ("Manual of Laboratory Operations, Lipid Research Clinic Program, Lipid and Lipoprotein Analysis", DHEW Publication No. (NIH) 75-628 (1974)); serum insulin, GIP, and C-peptide were measured by radioimmunoassay; and apoproteins were measured by radial immunodiffusion.
A group of 20 patients with high cholesterol baseline were orally given 70 µg enprostil twice daily. […] The median change for the group was 16 percent reduction, with 60 percent of the patients tested showing a significant reduction in serum cholesterol.
A second group of 16 patients with a high cholesterol baseline were given […] enprostil twice daily.
A third group of 13 individuals were given a placebo. […] The median change was a 2 percent increase in cholesterol.

serum cholesterol levels [1] = assay: Example 2, Table 1: oral enprostil BID in hypercholesterolemic patients versus placebo; type: in vivo, human
Experimental: as §1

serum cholesterol levels [2] = assay: Example 2, Table 2: 9-day placebo-controlled cross-over study in normocholesterolemic subjects, serum lipids and apoproteins; type: in vivo, human; design: Mean reduction of cholesterol / Mean reduction of LDL-cholesterol / Mean reduction of HDL-cholesterol / Mean reduction of apoprotein-A / Mean reduction of apoprotein-B: concentration or dose not given beside the values; settings: 9-day cross-over
Experimental: as §1
To further clarify the nature of these changes in a prospective manner, normal subjects were dosed with enprostil for periods ranging from 8 days up to 44 days in duration.
In a 9-day placebo-controlled cross-over study, with each subject serving as their own control, the mean reduction in cholesterol, LDL-cholesterol, and HDL-cholesterol are shown in Table 2.
These findings are surprising since the subjects in this study were normocholesterolemic at baseline (that is serum cholesterol under 250 mg/dl) and were on a free diet with no attempt to regulate dietary cholesterol intake.

serum cholesterol levels [3] = assay: Example 3: 44-day placebo-controlled dosing study, total and LDL-cholesterol; type: in vivo, human
Experimental: as §1
In a 44-day dosing study, 20 subjects participated in a placebo-controlled trial. Ten subjects received enprostil and the remainder received placebo. Data were obtained from 9 of the 10 subjects who received enprostil. […] This subject was normocholesterolemic at baseline and no dietary manipulation was attempted.

serum GIP levels = assay: Example 4: double-blind cross-over meal study, serum GIP; type: in vivo, human; settings: 70p.g enprostil orally 30 minutes before meal; placebo four-fold increase
Experimental: as §1
Serum GIP levels are known to increase after meals.
Groups of 10 subjects participated in a double-blind, cross-over study. Either a placebo or 70p.g enprostil was orally given 30 minutes before meal time and levels of GIP were measured.

[4] = tested on: serum insulin and glucose levels; assay: Example 5: double-blind cross-over meal study, serum insulin and glucose; type: in vivo, human; settings: enprostil orally 30 minutes before meal
Experimental: as §1
A group of 10 subjects participated in a double-blind cross-over study. Either a placebo or enprostil was orally given 30 minutes before meal time and levels of insulin and glucose were measured after the meal.

[5] = tested on: serum insulin and glucose levels; assay: Example 6: eight-day cross-over study with standard breakfast, serum glucose, insulin and GIP; type: in vivo, human; settings: 70 µg orally
Experimental: as §1
Eight healthy male subjects received either […] enprostil per day or placebo for eight days followed by a washout period of one week and a subsequent second eight-day administration during which they received the opposite drug regime.
On day 1 and day 8 of each study period the subjects reported to the clinical studies unit fasting and were administered 70 µg of enprostil orally in a glass of water. Thirty minutes later they were administered a standard breakfast and blood samples were drawn at -30 (just prior to enprostil administration), O (at the time of enprostil administration), 15, 30, 60, 90, 120 and 180 minutes.

serum xylose = assay: Example 7: oral d-xylose absorption test in 10-day cross-over study; type: in vivo, human; settings: 5 g d-xylose orally
Experimental: (§2) 10 normal subjects participated in a 10-day placebo-controlled cross-over study, receiving either placebo or 70 µg enprostil per day. On day 1 and day 9 of each study phase they orally received 5 g of d-xylose, a sugar not normally metabolized in man. Blood measurements for serum xylose were made at -30, 0, +30, 60, 120, 180, 240, and 300 minutes following ingestion.of xylose. On day 2 and day 10 of each study phase, the subjects received a 25 g intravenous glucose tolerance test, 30 minutes following enprostil administration.

serum glucose = assay: Example 7: 25 g intravenous glucose tolerance test; type: in vivo, human; settings: 25 g intravenous glucose 30 minutes after enprostil, day 2 and day 10
Experimental: as §2

serum glucose levels = assay: Example 8 (headed 'Example'): 30-day dosing study with standard breakfast, serum glucose; type: in vivo, human; settings: enprostil 35 pg BID
Experimental: 20 subjects participated in a study lasting up to 44 days. On day -8, all 20 subjects received a placebo capsule, followed 30 minutes later by a standard breakfast with serial blood measurements. Eight days later all 20 subjects were randomized to either enprostil 35 pg BID or placebo, and continued dosing for a period of 30 days. On days 1, 8, and 30, they were given enprostil followed 30 minutes later by a standard breakfast with serial blood measurements.

serum triglycerides = assay: Example 9: double-blind cross-over fatty meal study, serum and chylomicron triglycerides; type: in vivo, human
Experimental: as §1
(§3) Six male subjects participated in a double-blind cross-over study. Either placebo or enprostil […] was orally given 30 minutes before a fatty meal consisting of approximately 600 Kcal, 90% of which was fat. Following the meal, serum triglycerides and total serum cholesterol were measured at serial time points before and after removal of serum chylomicrons by ultracentrifugation. Serum HDL-cholesterol was measured only before chylomicron removal.

insulin and GIP = assay: Example 9: fatty meal study, insulin and GIP; type: in vivo, human
Experimental: as §1, §3

atherosclerotic plaque = assay: Example 10: cholesterol-fed rabbit, aortic atherosclerotic plaque; type: in vivo, New Zealand white rabbits; settings: Group B: 2% cholesterol diet, enprostil 10 pg/Kg/day constant oral infusion, 56 days; vehicle Group A 25%
Experimental: Fortyfive New Zealand white rabbits were allocated to three groups, A, B, and C, each group consisting of 15 rabbits. Group A was fed a 2% cholesterol diet and received vehicle administered by constant oral infusion at 62 ul/day using an Alza minipump. Group B was also fed a 2% cholesterol diet but, via the minipump, received enprostil at an infusion rate of 10 pg/Kg/day. Group C was fed a normal diet and received no treatment.
At the end of 56 days of the above treatments, rabbits were sacrificed and their aortic tissue was subjected to pathologic examination. In Group C, the placebo control group, the percent of aortic area covered by atherosclerotic plaque was under 5%. In the rabbits from Group A, which had received the high cholesterol diet with vehicle infusion, 25% of the aortic area was covered with atherosclerotic plaque. These findings contrasted with those for the Group B rabbits, which in addition to the high cholesterol diet had received enprostil by continuous infusion . In these animals, only 10% of aortic tissue was covered with atheromatous plaque. This finding is statistically significant from the Group A rabbits.

[6] = Animal antisecretory assays; type: in vivo; settings: compared with enprostil (isomer mixture)
insulin levels = settings: cited from earlier work
[7] = of nine evaluable subjects receiving enprostil
[8] = one subject, baseline to day 44
[9] = enprostil 35 pg before fatty meal
[10] = administered by tube to the duodenum

Compound: COC(=O)CCC=C=CCC1C(=O)CC(O)C1C=CC(O)COc1ccccc1 (racemic) [enprostil, methyl (±)-7-[(1R*,2R*,3R*)-3-hydroxy-2-[(E)-(3R*)-3-hydroxy-4-phenoxy-l-butenyl]-5-oxocyclopentyl]-4,5-heptadienoate]
- median change (reduction) of serum cholesterol (serum cholesterol; 35 pg enprostil twice daily, 16 patients with high cholesterol baseline): eleven
- number of patients showing greater than 10 percent serum cholesterol reduction (serum cholesterol; 35 pg twice daily, 16 patients): eight
- number of patients showing greater than 25 percent reduction (serum cholesterol; 35 pg twice daily, 16 patients): one
- number of patients showing no change in serum cholesterol (serum cholesterol; 35 pg twice daily, 16 patients): seven
- patients showing serum cholesterol reduction (serum cholesterol; 35 pg twice daily, 16 patients): 56%
- median change (reduction) of serum cholesterol (serum cholesterol; 70 µg enprostil orally twice daily, 20 patients with high cholesterol baseline): 16%
- number of patients showing greater than 10 percent reduction (serum cholesterol; 70 µg twice daily, 20 patients): eleven
- number of patients showing greater than 25 percent reduction (serum cholesterol; 70 µg twice daily, 20 patients): one
- number of patients showing no change in serum cholesterol (serum cholesterol; 70 µg twice daily, 20 patients): eight
- patients tested showing a significant reduction in serum cholesterol (serum cholesterol; 70 µg twice daily, 20 patients): 60%
- Cholesterol % decrease (combined 2-12 week of dosing) (serum cholesterol levels [1]; 7 µg BID, 9 hypercholesterolemic subjects): 67%
- Median % change (cholesterol) (serum cholesterol levels [1]; 7 µg BID, 9 subjects): -11%
- Cholesterol % decrease (combined 2-12 week of dosing) (serum cholesterol levels [1]; 35 µg BID, 28 hypercholesterolemic subjects): 64%
- Median % change (cholesterol) (serum cholesterol levels [1]; 35 µg BID, 28 subjects): -13%
- Cholesterol % decrease (combined 2-12 week of dosing) (serum cholesterol levels [1]; 70 µg BID, 28 hypercholesterolemic subjects): 64%
- Median % change (cholesterol) (serum cholesterol levels [1]; 70 µg BID, 28 subjects): -17%
- change in total triglycerides (serum cholesterol levels [2]): essentially no change
- Mean reduction of HDL-cholesterol (serum cholesterol levels [2]; free diet): -9.2%
- Mean reduction of LDL-cholesterol (serum cholesterol levels [2]; free diet): -21.0%
- Mean reduction of apoprotein-A (serum cholesterol levels [2]; free diet): -1.8%
- Mean reduction of apoprotein-B (serum cholesterol levels [2]; free diet): -16.0%
- Mean reduction of cholesterol (serum cholesterol levels [2]; free diet): -15.0%
- individuals with reduction in total and LDL-cholesterol throughout the entire 44-day period (serum cholesterol levels [3]; [7]): Three
- subjects showing a reduction of total cholesterol by 16 days (serum cholesterol levels [3]; [7]): Six
- total serum cholesterol at day 44 (serum cholesterol levels [3]; one subject (most dramatic example), mean baseline 208 mg/dl, normocholesterolemic, no dietary manipulation): 123 mg/dL
- LDL-cholesterol at day 44 (serum cholesterol levels [3]; one subject, baseline 140 mg/dl): 75 mg/dL
- reduction in LDL-cholesterol (serum cholesterol levels [3]; [8]): 46%
- reduction of total serum cholesterol (serum cholesterol levels [3]; [8]): 43%
- increase in serum GIP 60 minutes after the meal stimulus (serum GIP levels): no increase
- raise in glucose levels after the meal [4]: no statistically or clinically significant raise
- increase of insulin levels after the meal ([4]; placebo five-fold): two-fold
- serum GIP ([5]; both study days): essentially complete inhibition
- serum insulin concentrations for each time point ([5]; day 1 and 8): marked reduction
- reduction of area under the serum glucose by time curve compared to the placebo phase ([5]; day 1 and day 8): 15-20%
- peak serum xylose levels (serum xylose; 70 µg enprostil per day, days 1 and 9): marked suppression and delay
- reduction in the amount of xylose excreted over 5 hours (serum xylose; 70 µg per day): 30%
- amount of xylose excreted over 5 hours (serum xylose; 70 µg per day, placebo 1.8g): 1.3 g
- serum glucose by time curves following intravenous glucose administration, enprostil versus placebo (serum glucose): no marked differences
- peak blood glucose levels versus placebo (serum glucose levels; standard breakfast): substantially reduced
- time of appearance of peak blood glucose levels (serum glucose levels; standard breakfast 30 minutes after dose, placebo approximately 60 minutes): ~90 min
- maximal postprandial total serum triglycerides before chylomicron removal (serum triglycerides; enprostil 35 pg 30 minutes before fatty meal, at 360 minutes, placebo 160 mg/dl at 120 minutes): 105 mg/dL
- appearance of postprandial serum (serum triglycerides; [9]): remained clear
- chylomicron triglyceride content (in words) (serum triglycerides; [9]): virtually complete suppression
- chylomicron-associated triglyceridemia through 120 minutes (serum triglycerides; [9]): complete absence
- fasting baseline total serum triglycerides before chylomicron removal (serum triglycerides; enprostil 35 pg phase, mean, placebo 86 mg/dl): 83 mg/dL
- fasting serum triglycerides after chylomicron removal (serum triglycerides; enprostil 35 pg phase, placebo 82 mg/dl): 80 mg/dL
- maximal postprandial serum triglycerides after chylomicron removal (serum triglycerides; enprostil 35 pg, 360 minutes, placebo 115 mg/dl (180 minutes)): 89 mg/dL
- mean rise of chylomicron triglyceride content over fasting level (serum triglycerides; enprostil 35 pg, at 360 minutes after fatty meal, placebo 46 mg/dl (120 minutes)): 16 mg/dL
- insulin levels following the fatty meal (insulin and GIP; enprostil 35 pg, at 30, 60, and 90 minutes): significantly lower
- GIP levels following the fatty meal (insulin and GIP; enprostil 35 µg, up to 360 minutes, p<0.05): virtually completely suppressed
- aortic tissue covered with atheromatous plaque (atherosclerotic plaque): 10%

Compound: COC(=O)CCC=C=CC[C@H]1C(=O)C[C@@H](O)[C@@H]1/C=C/[C@@H](O)COc1ccccc1 (single isomer, unassigned) [R allenic isomer of enprostil]
- potency in animal antisecretory assays [6]: increased potency
- toxicity in animal antisecretory assays [6]: lower toxicity

Compound: CCCCC[C@](C)(O)/C=C/[C@H]1[C@H](O)CC(=O)[C@@H]1C/C=C\CCCC(=O)OCC [(15S),15-methyl-PGE2 ethyl ester]
- glucose levels (insulin levels; intravenous administration): without affecting
- insulin levels (insulin levels; intravenous administration): lowered

Compound: CCCCC[C@](C)(O)/C=C/[C@H]1[C@H](O)CC(=O)[C@@H]1C/C=C\CCCC(=O)OC [(15S),15-methyl-PGE2 methyl ester]
- insulin levels (insulin levels; [10]): lowered
- serum glucose levels (insulin levels; [10]): no change
- time to peak serum glucose levels (insulin levels; intraduodenally or intravenously): no change
